Target: T1, human mAChR M1 (Homo sapiens, UniProt P11229)
T1 sequence (P11229 1-460): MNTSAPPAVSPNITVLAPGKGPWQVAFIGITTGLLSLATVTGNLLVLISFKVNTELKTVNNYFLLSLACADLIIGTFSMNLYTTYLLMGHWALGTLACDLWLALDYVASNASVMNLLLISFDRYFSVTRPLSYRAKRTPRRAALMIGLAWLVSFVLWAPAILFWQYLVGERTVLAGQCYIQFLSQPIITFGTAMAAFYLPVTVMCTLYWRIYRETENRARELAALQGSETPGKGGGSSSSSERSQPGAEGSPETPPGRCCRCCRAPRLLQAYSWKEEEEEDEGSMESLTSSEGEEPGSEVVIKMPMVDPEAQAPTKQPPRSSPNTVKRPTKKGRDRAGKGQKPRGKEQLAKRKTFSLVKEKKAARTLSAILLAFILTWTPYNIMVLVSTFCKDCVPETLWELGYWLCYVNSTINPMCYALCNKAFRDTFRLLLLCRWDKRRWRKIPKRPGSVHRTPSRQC
Test: mAChR M1 cell-based functional assay: calcium mobilization, positive allosteric modulator mode (increase in EC20 acetylcholine response)
Conditions: Table 2, human M1; for EC50: read-out: Human M1 EC50; for Emax: read-out: Human M1 Emax (%)
In short: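 Calcium-flux assay in CHO-K1 cells stably expressing human M1, loaded with Fluo-4 AM (50 min, 37 °C) and read at 1 Hz. Compound (11-point, 1:3 series) was added at 4 s, EC20 acetylcholine at 144 s and EC80 at 230 s. PAM activity is the concentration-dependent rise in the EC20 response, fitted with a four-parameter logistic.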

| SMILES | EC50 [µM] | Emax [%] |
| --- | --- | --- |
| Cc1csc2c(Cc3ccc(-n4cccn4)cc3)cc(C(=O)N(C)C3CCOCC3)nc12 [Compound 121, N,3-dimethyl-7-[(4-pyrazol-1-ylphenyl)methyl]-N-tetrahydropyran-4-yl-thieno[3,2-b]pyridine-5-carboxamide] | 6.76 | 54.9 |
| Cc1ncc(Cc2cc(C(=O)N[C@@H]3CCC[C@H]3O)nc3ccsc23)cn1 [Compound 125] | > 10 | 59.1 |
| Cc1ncc(Cc2cc(C(=O)NC3CCOCC3)nc3ccsc23)cn1 [Compound 126, 7-[(2-methylpyrimidin-5-yl)methyl]-N-tetrahydropyran-4-yl-thieno[3,2-b]pyridine-5-carboxamide] | > 10 | 27.4 |
| Cc1ncc(Cc2cc(C(=O)N[C@@H]3CCCC[C@H]3O)nc3ccsc23)cn1 [Compound 127, N-[(1R,2R)-2-hydroxycyclohexyl]-7-[(2-methylpyrimidin-5-yl)methyl]thieno[3,2-b]pyridine-5-carboxamide] | > 10 | 79.2 |
| Cc1ncc(Cc2cc(C(=O)N[C@@H]3CCOC[C@H]3O)nc3ccsc23)cn1 [Compound 128, N-[(3S,4R)-3-hydroxytetrahydropyran-4-yl]-7-[(2-methylpyrimidin-5-yl)methyl]thieno[3,2-b]pyridine-5-carboxamide] | > 10 | 75 |
| Cc1ncc(Cc2cc(C(=O)N[C@@H]3COCC[C@H]3O)nc3ccsc23)cn1 [Compound 129, N-[(3R,4R)-4-hydroxytetrahydropyran-3-yl]-7-[(2-methylpyrimidin-5-yl)methyl]thieno[3,2-b]pyridine-5-carboxamide] | > 10 | 51.5 |
| CO[C@@H]1CCCC[C@H]1NC(=O)c1cc(Cc2cnc(C)nc2)c2sccc2n1 [Compound 130, N-[(1R,2R)-2-methoxycyclohexyl]-7-[(2-methylpyrimidin-5-yl)methyl]thieno[3,2-b]pyridine-5-carboxamide] | > 10 | 20.1 |
| Cc1ncc(Cc2cc(C(=O)N[C@H]3CC[C@@H]3O)nc3ccsc23)s1 [Compound 132, N-[(1S,2S)-2-hydroxycyclobutyl]-7-[(2-methylthiazol-5-yl)methyl]thieno[3,2-b]pyridine-5-carboxamide] | > 10 | 54.9 |
| Cc1ncc(Cc2cc(C(=O)NC3CCOCC3)nc3ccsc23)s1 [Compound 135, 7-[(2-methylthiazol-5-yl)methyl]-N-tetrahydropyran-4-yl-thieno[3,2-b]pyridine-5-carboxamide] | > 10 | 60.9 |
| Cc1ncc(Cc2cc(C(=O)N[C@@H]3COCC[C@H]3O)nc3ccsc23)s1 [Compound 138, N-[(3R,4R)-4-hydroxytetrahydropyran-3-yl]-7-[(2-methylthiazol-5-yl)methyl]thieno[3,2-b]pyridine-5-carboxamide] | > 10 | 74.3 |
| CO[C@@H]1CCCC[C@H]1NC(=O)c1cc(Cc2cnc(C)s2)c2sccc2n1 [Compound 139, N-[(1R,2R)-2-methoxycyclohexyl]-7-[(2-methylthiazol-5-yl)methyl]thieno[3,2-b]pyridine-5-carboxamide] | > 10 | 51.1 |

Now those with a lower EC50, led by results:

| EC50 [µM] | Emax [%] | SMILES |
| --- | --- | --- |
| 0.32 | 78.7 | Cc1csc2c(Cc3ccc(-n4cccn4)cc3)cc(C(=O)N[C@@H]3CCCC[C@H]3O)nc12 [Compound 116, N-[(1R,2R)-2-hydroxycyclohexyl]-3-methyl-7-[(4-pyrazol-1-ylphenyl)methyl]thieno[3,2-b]pyridine-5-carboxamide] |
| 0.0833 | 76.6 | Cc1csc2c(Cc3ccc(-n4cccn4)cc3)cc(C(=O)N[C@@H]3CCOC[C@H]3O)nc12 [Compound 117, N-[(3S,4R)-3-hydroxytetrahydropyran-4-yl]-3-methyl-7-[(4-pyrazol-1-ylphenyl)methyl]thieno[3,2-b]pyridine-5-carboxamide] |
| 0.134 | 83.7 | Cc1csc2c(Cc3ccc(-n4cccn4)cc3)cc(C(=O)N[C@@H]3COCC[C@H]3O)nc12 [Compound 118] |
| 2.28 | 83.3 | CO[C@@H]1CCCC[C@H]1NC(=O)c1cc(Cc2ccc(-n3cccn3)cc2)c2scc(C)c2n1 [Compound 119, N-[(1R,2R)-2-methoxycyclohexyl]-3-methyl-7-[(4-pyrazol-1-ylphenyl)methyl]thieno[3,2-b]pyridine-5-carboxamide] |
| 1.32 | 75.3 | Cc1csc2c(Cc3ccc(-n4cccn4)cc3)cc(C(=O)N[C@@H]3CCCCC[C@H]3O)nc12 [Compound 120, N-[(1R,2R)-2-hydroxycycloheptyl]-3-methyl-7-[(4-pyrazol-1-ylphenyl)methyl]thieno[3,2-b]pyridine-5-carboxamide] |
| 0.869 | 80.4 | Cc1csc2c(Cc3ccc(-n4cccn4)cc3)cc(C(=O)NC3CCCNC3=O)nc12 (centres unmarked) [Compound 122, 3-methyl-N-(2-oxo-3-piperidyl)-7-[(4-pyrazol-1-ylphenyl)methyl]thieno[3,2-b]pyridine-5-carboxamide] |
| 0.435 | 28.8 | Cc1csc2c(Cc3ccc(-n4cccn4)cc3)cc(C(=O)NC3CCCCNC3=O)nc12 (centres unmarked) [Compound 123, 3-methyl-N-(2-oxoazepan-3-yl)-7-[(4-pyrazol-1-ylphenyl)methyl]thieno[3,2-b]pyridine-5-carboxamide] |
| 2.46 | 64.4 | Cc1csc2c(Cc3ccc(-n4cccn4)cc3)cc(C(=O)NC3CCN(C)CC3)nc12 [Compound 124, 3-methyl-N-(1-methyl-4-piperidyl)-7-[(4-pyrazol-1-ylphenyl)methyl]thieno[3,2-b]pyridine-5-carboxamide] |
| 4.65 | 83.4 | Cc1ncc(Cc2cc(C(=O)N[C@@H]3CCCCC[C@H]3O)nc3ccsc23)cn1 [Compound 131, N-[(1R,2R)-2-hydroxycycloheptyl]-7-[(2-methylpyrimidin-5-yl)methyl]thieno[3,2-b]pyridine-5-carboxamide] |
| 3.62 | 77.9 | Cc1ncc(Cc2cc(C(=O)N[C@@H]3CCC[C@H]3O)nc3ccsc23)s1 [Compound 133, N-[(1R,2R)-2-hydroxycyclopentyl]-7-[(2-methylthiazol-5-yl)methyl]thieno[3,2-b]pyridine-5-carboxamide] |
| 3.21 | 37.6 | Cc1ncc(Cc2cc(C(=O)NC3CCCCC3)nc3ccsc23)s1 [Compound 134, N-cyclohexyl-7-[(2-methylthiazol-5-yl)methyl]thieno[3,2-b]pyridine-5-carboxamide] |
| 0.359 | 81 | Cc1ncc(Cc2cc(C(=O)N[C@@H]3CCCC[C@H]3O)nc3ccsc23)s1 [Compound 136, N-[(1R,2R)-2-hydroxycyclohexyl]-7-[(2-methylthiazol-5-yl)methyl]thieno[3,2-b]pyridine-5-carboxamide] |
| 0.548 | 80.3 | Cc1ncc(Cc2cc(C(=O)N[C@@H]3CCOC[C@H]3O)nc3ccsc23)s1 [Compound 137, N-[(3S,4R)-3-hydroxytetrahydropyran-4-yl]-7-[(2-methylthiazol-5-yl)methyl]thieno[3,2-b]pyridine-5-carboxamide] |
| 0.306 | 82.8 | Cc1ncc(Cc2cc(C(=O)N[C@@H]3CCCCC[C@H]3O)nc3ccsc23)s1 [Compound 140, N-[(1R,2R)-2-hydroxycycloheptyl]-7-[(2-methylthiazol-5-yl)methyl]thieno[3,2-b]pyridine-5-carboxamide] |

From patent publication US11111251B2, “Positive allosteric modulators of the muscarinic acetylcholine receptor M1” (Vanderbilt University, priority 2016, dated 2021)
